Measured values taken from the NIST ThermoML archive (doi:10.1021/acs.jced.7b00078).
± gives the expanded uncertainty stated by the source. Each block holds one compound with its values, some of them ahead of it.

Details: Liquid; for mass density: 303.15 K, 101.33 kPa, Vibrating tube method; for vapor or sublimation pressure: Ebulliometric method (Recirculating still)

Structure (SMILES): CSSC [2,3-dithiabutane]
mass density: 1051.14 ± 0.14 kg/m3
vapor or sublimation pressure (353.42 K): 40 ± 0.13 kPa
vapor or sublimation pressure (382.87 K): 101.33 ± 0.14 kPa

Structure (SMILES): CCO [ethanol]
mass density: 780.78 ± 0.15 kg/m3
vapor or sublimation pressure (329.63 K): 40 ± 0.15 kPa
vapor or sublimation pressure (351.51 K): 101.33 ± 0.15 kPa

Structure (SMILES): CO [methanol]
mass density: 781.81 ± 0.15 kg/m3
vapor or sublimation pressure (315.8 K): 40 ± 0.15 kPa
vapor or sublimation pressure (337.97 K): 101.33 ± 0.15 kPa

Second part, the compound after the results:

mass density: 801.92 ± 0.14 kg/m3
vapor or sublimation pressure (366.81 K): 40 ± 0.14 kPa
vapor or sublimation pressure (390.72 K): 101.33 ± 0.14 kPa
Structure (SMILES): CCCCO [butan-1-ol]

mass density: 795.54 ± 0.15 kg/m3
vapor or sublimation pressure (347.65 K): 40 ± 0.15 kPa
vapor or sublimation pressure (370.23 K): 101.33 ± 0.15 kPa
Structure (SMILES): CCCO [propan-1-ol]
